Assay results taken from ChEMBL document CHEMBL1140156, “Polyoxygenated diterpenes from the sponge Phorbas sp” (2008).
In brackets after ≈: the same amount, converted by molar mass. Activity calls are given as the source filed them. The rule behind the calls is not given here.

Columns and labels:
K562 = test: Cytotoxicity against human K562 cells; format: functional; settings: for CC50: read-out: LC50 (the source's name)
[1] = Inhibition of isocitrate lyase

`CCCC(=O)O[C@@H]1[C@@H](OC(C)=O)[C@@H](O)C(C)=C[C@@H]2[C@H]3[C@@H](C(C)C)[C@@H](OC(=O)CC(C)C)[C@H](OC(=O)CCC)[C@@]3(C)[C@@H](OC(=O)CCC)C[C@]21C` [GAGUNIN A] gave a CC50 (K562) of 18.1 µg/mL (≈ 25.6 µM) and an IC50 [1] of 55 µg/mL (≈ 77.8 µM).

`CCCC(=O)O[C@@H]1[C@H](C(C)C)[C@@H]2[C@H]3C=C(C)[C@H](O)[C@H](OC(C)=O)[C@@H](OC(=O)CCC)[C@]3(C)C[C@H](OC(=O)CCC)[C@]2(C)[C@H]1OC(=O)CCC` [GAGUNIN B] showed a CC50 (K562) of 3.5 µg/mL (≈ 5.05 µM) and an IC50 [1] of 55 µg/mL (≈ 79.4 µM).

Molecule `CCCC(=O)O[C@H]1C[C@]2(C)[C@H](C=C(C)[C@H](OC(C)=O)[C@H](O)[C@H]2OC(=O)CCC)[C@H]2[C@@H](C(C)C)[C@@H](OC(C)=O)C[C@]21C` [GAGUNIN G] has a CC50 (K562) of 0.45 µg/mL (≈ 0.778 µM) and an IC50 [1] of 55 µg/mL (≈ 95 µM).

`CCCC(=O)O[C@@H]1[C@H](C(C)C)[C@@H]2[C@H]3C=C(C)[C@H](O)[C@H](OC(C)=O)[C@@H](OC(=O)CCC)[C@]3(C)C[C@H](OC(=O)CCC)[C@]2(C)[C@H]1OC(=O)CC` [GAGUNIN J] showed a CC50 (K562) of 9.1 µg/mL (≈ 13.4 µM) and an IC50 [1] of 55 µg/mL (≈ 81 µM).

With `CCCC(=O)O[C@H]1C[C@]2(C)[C@H]([C@H]1C(C)C)[C@H]1C=C(C)[C@H](O)[C@H](OC(C)=O)[C@@H](OC(=O)CCC)[C@]1(C)C[C@@H]2OC(=O)CC(C)C` [GAGUNIN M] the CC50 (K562) was 0.71 µg/mL (≈ 1.14 µM) and the IC50 [1] was 55 µg/mL (≈ 88.6 µM).

For `CCCCC(=O)O[C@@H]1[C@H](C(C)C)[C@@H]2[C@H]3C=C(C)[C@H](O)[C@H](OC(C)=O)[C@@H](OC(=O)CCC)[C@]3(C)C[C@H](OC(=O)CCC)[C@]2(C)[C@H]1OC(=O)CCC` [GAGUNIN K], the CC50 (K562) was 17.5 µg/mL (≈ 24.8 µM) and the IC50 [1] was 55 µg/mL (≈ 77.8 µM).

`CCCC(=O)O[C@@H]1[C@H](C(C)C)[C@@H]2[C@H]3C=C(C)[C@H](O)[C@H](OC(C)=O)[C@@H](OC(C)=O)[C@]3(C)C[C@H](OC(=O)CCC)[C@]2(C)[C@H]1OC(=O)CCC` [GAGUNIN P] showed a CC50 (K562) of 8.5 µg/mL (≈ 12.8 µM) and an IC50 [1] of 55 µg/mL (≈ 82.7 µM).

For `CCCC(=O)O[C@H]1C[C@]2(C)[C@H]([C@H]1C(C)C)[C@H]1C=C(C)[C@H](OC(C)=O)[C@H](O)[C@@H](OC(=O)CCC)[C@]1(C)C[C@@H]2OC(=O)CCC` [GAGUNIN F], the CC50 (K562) was 0.25 µg/mL (≈ 0.412 µM) and the IC50 [1] was 55 µg/mL (≈ 90.6 µM).

With `CCCC(=O)O[C@H]1C[C@]2(C)[C@H]([C@H]1C(C)C)[C@H]1C=C(C)[C@H](OC(C)=O)[C@H](O)[C@@H](OC(=O)CCC)[C@]1(C)C[C@@H]2OC(C)=O` [GAGUNIN N] the CC50 (K562) was > 50 µg/mL and the IC50 [1] was 55 µg/mL (≈ 95 µM).

For `CCCC(=O)O[C@@H]1[C@H](C(C)C)[C@@H]2[C@H]3C=C(C)[C@H](O)[C@H](OC(C)=O)[C@@H](OC(=O)CCC)[C@]3(C)C[C@H](OC(C)=O)[C@]2(C)[C@H]1OC(=O)CCC` [GAGUNIN I], the CC50 (K562) was 11.5 µg/mL (≈ 17.3 µM) and the IC50 [1] was 55 µg/mL (≈ 82.7 µM).

Work on `CCCC(=O)O[C@H]1C[C@]2(C)[C@H]([C@H]1C(C)C)[C@H]1C=C(C)[C@H](O)[C@H](OC(C)=O)[C@@H](OC(=O)CCC)[C@]1(C)C[C@@H]2OC(=O)CCC` [GAGUNIN D] yielded a CC50 (K562) of 0.19 µg/mL (≈ 0.313 µM) and an IC50 [1] of 55 µg/mL (≈ 90.6 µM).

With `CCCC(=O)O[C@@H]1[C@H](C(C)C)[C@@H]2[C@H]3C=C(C)[C@H](O)[C@H](OC(=O)CC)[C@@H](OC(=O)CCC)[C@]3(C)C[C@H](OC(=O)CCC)[C@]2(C)[C@H]1OC(=O)CCC` [GAGUNIN Q] the CC50 (K562) was > 50 µg/mL and the IC50 [1] was 55 µg/mL (≈ 77.8 µM).

Molecule `CCCC(=O)O[C@H]1C[C@]2(C)[C@H]([C@H]1C(C)C)[C@H]1C=C(C)[C@H](O)[C@H](OC(C)=O)[C@@H](OC(=O)CCC)[C@]1(C)C[C@@H]2OC(C)=O` [GAGUNIN L] has a CC50 (K562) of 12.5 µg/mL (≈ 21.6 µM) and an IC50 [1] of 55 µg/mL (≈ 95 µM).

For `CCCC(=O)O[C@@H]1[C@H](C(C)C)[C@@H]2[C@H]3C=C(C)[C@H](O)[C@H](OC(C)=O)[C@@H](OC(=O)CCC)[C@]3(C)C[C@H](OC(=O)CC)[C@]2(C)[C@H]1OC(=O)CCC` [GAGUNIN H], the CC50 (K562) was 10 µg/mL (≈ 14.7 µM) and the IC50 [1] was 55 µg/mL (≈ 81 µM).

`CCCC(=O)O[C@@H]1[C@H](C(C)C)[C@@H]2[C@H]3C=C(C)[C@H](O)[C@H](OC(C)=O)[C@@H](OC(=O)CCC)[C@]3(C)C[C@H](OC(=O)CCC)[C@]2(C)[C@H]1OC(C)=O` [GAGUNIN C] showed a CC50 (K562) of 0.37 µg/mL (≈ 0.557 µM) and an IC50 [1] of 55 µg/mL (≈ 82.7 µM).

For `CCCC(=O)O[C@@H]1[C@H](C(C)C)[C@@H]2[C@H]3C=C(C)[C@H](OC(C)=O)[C@H](O)[C@@H](OC(=O)CCC)[C@]3(C)C[C@H](OC(=O)CCC)[C@]2(C)[C@H]1OC(=O)CCC` [GAGUNIN O], the CC50 (K562) was 11.1 µg/mL (≈ 16 µM) and the IC50 [1] was 55 µg/mL (≈ 79.4 µM).

For `CC(C)=CCCC(C)/C=C/C=C(\C)[C@H]1CC[C@H](C(=O)O)CC1` (some centres undefined), the Activity (K562) was “inactive” and the Activity [1] was “inactive”.
